Columns and labels:
[1] = tested on: B16-F10 mouse melanoma tumor; assay: Daily vs single bolus intratumoral administration in B16-F10 mouse melanoma tumor model; type: in vivo; conditions: anti-PD1 mAb 100 ug i.p. Day 4 and 9
Excerpt: Mouse melanoma cells (B16-F10) are to be injected into the flank (right side) of mice (C57Bl/6) and a tumor is to be allowed to form. The agent will be administered intratumorally or peritumorally (i.e., intradermally or subcutaneously) either as: • 1. a single bolus, • 2. a series of fractional injections where the total dose given over the time frame is equivalent to the single bolus. These injections may be given daily or every other day. • 3. a silk microneedle patch formulated with the one or more therapeutic agents.
Tumor growth will be measured two to three times weekly. Animals will be euthanized when humane endpoints have been reached. These endpoints include weight loss >15%, body condition score <1, tumor volume >1 cm^3, tumor length (defined as the longest dimension) >1.5 cm, or tumor ulceration/necrosis. These humane endpoints apply to all in vivo experiments using the melanoma model.
According to the methods outlined above, daily intratumoral administration was compared to single intratumoral bolus doses, with IL-2 or gemcitabine, using a B16-F10 mouse melanoma tumor model. For this study, two cycles of treatment were performed, including a bolus administration on Day 7 and on Day 21, and daily administration on Days 7-11 and Days 21-25. […] On Day 0, mice were inoculated by subcutaneous administration of B16-F10 cells. […]

CT26 colon carcinoma = assay: Daily vs single bolus intratumoral administration in murine CT26 colon carcinoma model; type: in vivo, mouse; conditions: daily intratumoral 95 μg days 7-11 compared to single bolus 475 μg day 7; anti-PD1 mAb 100 μg i.p. day 4 and 9
Procedure: Daily intratumoral administration compared to single intratumoral bolus doses was further investigated using gemcitabine in a murine CT26 colon carcinoma model (see FIG. 7A-7B). On day 0, mice were inoculated by subcutaneous administration of CT26 cells. On day 4 and day 9, mice were administered a dose of an anti-PD1 mAb (100 μg per dose) by intraperitoneal injection. Data was pooled from two experiments, with 10 mice per group.
CT26 mice in the ‘single bolus dose’ group received a single bolus dose of gemcitabine (475 μg) (intratumoral) at day 7, and four doses of saline (intratumoral) for the next four days (FIG. 7A). CT26 mice in the ‘daily dose’ group received daily doses of gemcitabine (95 μg) (intratumoral) over days 7-11 (5 total doses) (FIG. 7B). Each daily doses was a fractional dose equivalent to approximately ⅕ of the single bolus dose.

SMILES: Nc1ccn([C@@H]2O[C@H](CO)[C@@H](O)C2(F)F)c(=O)n1 [gemcitabine]
- survival (Kaplan-Meier curve) ([1]; daily intratumoral doses (Days 7-11 and 21-25) compared to single bolus doses (Day 7 and 21)): greater survival
- tumor burden, as determined by tumor volume over time ([1]; daily intratumoral doses (Days 7-11 and 21-25, each 1/5 of bolus) compared to single bolus doses (Day 7 and 21)): lower tumor burden
- overall survivability (Kaplan-Meier survival curve) (CT26 colon carcinoma): greater than the bolus dose group
- tumor burden (tumor volume over time) (CT26 colon carcinoma): lower tumor burden
